Measurements reported in EP0226973A2, “4-Bis(2'-hydroxyethyl)amino-1-(3'-hydroxypropyl)amino-2-nitro-benzene, process for its preparation and means for dyeing hair” (Wella Aktiengesellschaft, priority 1985, dated 1987).
Values after ≈ are worked out from the molar mass of the structure shown. Read-outs that look alike come from different tables or passages of the source.

Columns and labels:
Ames mutagenicity test = type: cell-based; details: Mutagenitätstest nach Ames
Solubility in water = type: physicochemical; details: read-out: Löslichkeit in Wasser
Human-Lymphozyten = test: Human lymphocyte mutagenicity test; type: cell-based; details: Human-Lymphozytentest
[1] = Toxicological properties (general statement)

| Compound | mutagene Wirkung (Ames mutagenicity test) | solubility (Solubility in water) [µg/mL] | mutagene Wirkung (Human-Lymphozyten) | solubility (Solubility in water; ohne Zusatz von Lösungsvermittlern) [µg/mL] | toxikologische Eigenschaften [1] |
| --- | --- | --- | --- | --- | --- |
| O=[N+]([O-])c1cc(N(CCO)CCO)ccc1NCCCO [Farbstoff (I), 4-Bis(2′-hydroxyethyl)amino-l-(3′-hydroxypropyl)amino-2-nitro-benzol] | keine mutagene Wirkung | ~20000 (≈ 66.8 mM) | keine mutagene Wirkung | – | – |
| CCNc1ccc(N(CCO)CCO)cc1[N+](=O)[O-] [Farbstoff (III), 4-Bis(2′-hydroxyethyl)amino-l-ethylamino-2-nitro-benzol] | – | – | – | < 1500 | – |
| CNc1ccc(N(CCO)CCO)cc1[N+](=O)[O-] [Farbstoff (V), 4-Bis(2′-hydroxyethyl)amino-l-methylamino-2-nitro-benzols] | im Gegensatz zu Farbstoff (V) | ~5000 (≈ 19.6 mM) | im Gegensatz zu Farbstoff (V) | – | sehr unbefriedigend |
